The subject of this assay is intestinal fat absorption. Description: Intestinal fat absorption reduction determination (gravimetric fecal fat content) in dogs. Conditions: male beagles, oral gavage, dosing solution 0.5 mg/mL, 1 mL per kg body weight, single daily dose on Days 0 and 5-12; fecal fat determined gravimetrically. The class given is in vivo. From the text: Healthy, young adult (1-2 years of age) male beagles (Marshall Farms, North Rose, New York, NY 14516) weighing 11.45 - 12.45 kg at the start of the treatment period were employed as test subjects. The animals were housed individually in standard caging meeting or exceeding the USDA regulations (U.S. Department of Agriculture, Animal Welfare, Final Rules. 9 C.F.R. Parts 1-3, 1995).
The test compound was provided as a water-soluble powder. The dosing solution, administered by oral gavage, was provided employing a 0.025 M citrate buffer (approx. pH = 3) prepared using anyhdrous citric acid (0.4 g/mL) and anhydrous sodium citrate (0.1 g/mL) as the test vehicle. The dosing solution was prepared at 0.5 mg/mL activity so that 1 mL was delivered per kg body weight. Following a fourteen day acclimation period (designated as Days -14 to -1), during which time the test animals were evaluated for certain criteria including determination of body weight, physical examinations, and initial fecal specimen collection, a sixteen day evaluation study was effected. […]
Fecal specimens were collected daily over approximately 24 hours (±1 hr) prestudy and then beginning on Day -2 and terminating on Day 16. The fecal specimens so collected were weighed (total grams of bulk feces) frozen, stored at -26°C to -20°C and then analyzed for fecal fat content. […]

SMILES strings stand for the structures.

For the molecule `CCCCN1CCc2cc(NC(=O)c3ccccc3-c3ccc(C(F)(F)F)cc3)ccc2C1` [4'-trifluoromethyl-biphenyl-2-carboxylic acid-(2-butyl-1,2,3,4-tetrahydroisoquinolin-6-yl)-amide], the “reduced intestinal fat absorption in dogs” value came to 26%. Consider `CC(=O)NCCN1CCc2cc(NC(=O)c3ccccc3-c3ccc(C(F)(F)F)cc3)ccc2C1` [4'-trifluoromethyl-biphenyl-2-carboxylic acid-[2-(2-acetylaminoethyl)-1,2,3,4-tetrahydroisoquinolin-6-yl amide], for which the “reduced intestinal fat absorption in dogs” value worked out at 49%.

(Values after EP1099439A2, “Use of apo B secretion/MTP inhibitors” (Pfizer Products Inc., priority 1999, dated 2001).)
